The record followed here is ChEMBL document CHEMBL6115011, “Optimizing biofilm inhibitors: Balancing activity and toxicity in 2N-aminated 5-aryl-2-aminoimidazoles” (Bioorg Med Chem, 2025).

Broadly, the CC50 is the concentration giving 50% cytotoxicity. The term pIC50 denotes −log10 of the IC50, conventionally taken in molar units. The low end stands for a high IC50, the high end for a low IC50.

One series relates to NCI-H460. Nature of the series: Cytotoxicity against human NCI-H460 cells assessed as inhibition of cell growth measured after 72 hrs by CellTiter 96 Aqueous One Solution Cell Proliferation Assay. It is filed as functional.
The test system of series [1] is Pseudomonas aeruginosa. Nature of the series: Inhibition of biofilm formation in Pseudomonas aeruginosa PA14 at 25 degree C measured after 24 hrs by crystal violet staining based analysis. Type of series: functional, organism-based. The note with it: PA14, 24 h.
Series [2] relates to Staphylococcus aureus. Nature of the series: Antibacterial activity against Staphylococcus aureus SH1000 at 25 degree C measured after 48 hrs by crystal violet staining based microplate reader analysis. It is filed as functional, organism-based. The note with it: SH1000, 48 h.
A further series deals with LN-229. Briefly: Cytotoxicity against human LN-229 cells assessed as inhibition of cell growth measured after 72 hrs by CellTiter 96 Aqueous One Solution Cell Proliferation Assay. Type of series: functional.
Series [3] relates to Staphylococcus aureus. Briefly: Antibacterial activity against methicillin-resistant Staphylococcus aureus at 25 degree C measured after 48 hrs by crystal violet staining based microplate reader analysis. Type of series: functional, organism-based.
Series [4] relates to Staphylococcus aureus. Briefly: Inhibition of biofilm formation in Staphylococcus aureus SH1000 at 25 degree C measured after 48 hrs by crystal violet staining based analysis. It is filed as functional, organism-based. The note with it: SH1000, 48 h.
Series [5] relates to Escherichia coli. Briefly: Inhibition of biofilm formation in Escherichia coli TG1 at 25 degree C measured after 24 hrs by crystal violet staining based microplate reader analysis. It is filed as functional, organism-based. As to conditions: TG1, 24 h.
Series [6] concerns Staphylococcus aureus. Nature of the series: Inhibition of biofilm formation in methicillin-resistant Staphylococcus aureus at 25 degree C measured after 48 hrs by crystal violet staining based analysis. Type of series: functional, organism-based.
Series [7] in a line: Toxicity in Caenorhabditis elegans CB5612 by wide field microscopy based analysis.
Series [8] relates to Pseudomonas aeruginosa. Briefly: Antibacterial activity against Pseudomonas aeruginosa PA14 at 25 degree C measured after 24 hrs by crystal violet staining based microplate reader analysis. Type of series: functional, organism-based. The note with it: PA14, 24 h.
Series [9] in a line: Cytotoxicity against human PBMC cells assessed as survival rate at 100 uM measured after 72 hrs by trypan blue staining based assay relative to control. Type of series: toxicity, cell-based. The note with it: read-out: Survival.
Series [10] can be described thus: Cytotoxicity against human PBMC cells assessed as survival rate at 400 uM measured after 72 hrs by trypan blue staining based assay relative to control. The note with it: read-out: Survival. Type of series: toxicity, cell-based.
A further series relates to Z-138. Nature of the series: Cytotoxicity against human Z138 cells assessed as inhibition of cell growth measured after 72 hrs by CellTiter 96 Aqueous One Solution Cell Proliferation Assay. It is filed as functional.
The test system of another series is CAPAN-1. Briefly: Cytotoxicity against human CAPAN-1 cells assessed as inhibition of cell growth measured after 72 hrs by CellTiter 96 Aqueous One Solution Cell Proliferation Assay. Type of series: functional.
The subject of series [11] is Staphylococcus epidermidis. Nature of the series: Inhibition of biofilm formation in Staphylococcus epidermidis at 25 degree C measured after 48 hrs by crystal violet staining based analysis. It is filed as functional, organism-based.
In a further series the test system is HL-60. Nature of the series: Cytotoxicity against human HL-60 cells assessed as inhibition of cell growth measured after 72 hrs by CellTiter 96 Aqueous One Solution Cell Proliferation Assay. It is filed as functional.
The test system of series [12] is Escherichia coli. Briefly: Antibacterial activity against Escherichia coli TG1 at 25 degree C measured after 24 hrs by crystal violet staining based microplate reader analysis. The note with it: TG1, 24 h. Type of series: functional, organism-based.
Another series has as its system K562. Briefly: Cytotoxicity against human K562 cells assessed as inhibition of cell growth measured after 72 hrs by CellTiter 96 Aqueous One Solution Cell Proliferation Assay. Type of series: functional.
A short description of series [13]: Cytotoxicity against human PBMC cells assessed as survival rate at 25 uM measured after 72 hrs by trypan blue staining based assay relative to control. Type of series: toxicity, cell-based. The note with it: read-out: Survival.
The nature of series [14]: Genotoxicity in human CAPAN-1 cells assessed as fold change at 400 uM measured after 3 hrs by Western blot analysis. It is filed as toxicity, cell-based. As to conditions: capan-1, 3 h. On the technique in general: In western blotting, separated proteins are transferred to a membrane and probed.
For another series, the system named is HCT-116. Briefly: Cytotoxicity against human HCT-116 cells assessed as inhibition of cell growth measured after 72 hrs by CellTiter 96 Aqueous One Solution Cell Proliferation Assay. It is filed as functional.
Series [15] is described as follows: Cytotoxicity against human DND41 cells assessed as inhibition of cell growth measured after 72 hrs by CellTiter 96 Aqueous One Solution Cell Proliferation Assay. It is filed as functional.
The nature of series [16]: Cytotoxicity against human PBMC cells assessed as survival rate at 25 uM measured after 72 hrs by trypan blue staining based assay (reference value: 94.0%). Type of series: toxicity, cell-based. As to conditions: read-out: Survival.
Series [17] is described as follows: Genotoxicity in human CAPAN-1 cells at 100 to 400 uM measured after 3 hrs by Western blot analysis. As to conditions: capan-1, 3 h, dose 100-400 µM. Type of series: toxicity, cell-based.
Series [18] relates to Staphylococcus epidermidis. Nature of the series: Antibacterial activity against Staphylococcus epidermidis at 25 degree C measured after 48 hrs by crystal violet staining based microplate reader analysis. Type of series: functional, organism-based.
The nature of series [19]: Cytotoxicity against human PBMC cells assessed as survival rate at 25 to 100 uM measured after 72 hrs by trypan blue staining based assay. Type of series: toxicity, cell-based. The note with it: dose 25-100 µM.
Series [20] in a line: Cytotoxicity against human PBMC cells assessed as survival rate at 400 uM measured after 72 hrs by trypan blue staining based assay (reference value: 48%). Type of series: toxicity, cell-based. The note with it: read-out: Survival.

pIC50: −log10 of the molar value. Some results are limits rather than exact numbers.

`NCCCCCCCCNc1ncc(-c2ccc(Br)cc2)[nH]1`: the CC50 in the series on NCI-H460 was 30 µM; in the series with LN-229 (Homo sapiens, LN-229, 72 h), 30 µM; with Z-138 (Homo sapiens, Z-138, 72 h) it was 30 µM; in the series on CAPAN-1, 30 µM; with HL-60, 30 µM; in the series on K562 (Homo sapiens, K562, 72 h), 30 µM. For the same molecule, the negative-log IC50 (pIC50) is 5.11 in the series with Pseudomonas aeruginosa [1]; 4.44 with Staphylococcus aureus [2]; 4.21 in the series on Staphylococcus aureus [3]; 4.34 with Staphylococcus aureus [4]; 5.17 in the series with Escherichia coli [5]; 4.58 in the series on Staphylococcus aureus [6]. The pIC50 was 4.84 with Pseudomonas aeruginosa [8], 4.90 in series [11] and 4.75 in the series on Escherichia coli [12]. Moreover, the Activity entry in series [7] is listed as “Toxic”. Moreover, the viability at 72 h, 100 µM in series [9] was 94%. In addition, the viability at 72 h, 400 µM in series [10] is 30.2%. In addition, the viability at 72 h, 25 µM in series [13] is 79.8%.

In the case of `NCCCCCCCCNc1ncc(-c2ccc(F)cc2)[nH]1`, the pIC50 with Pseudomonas aeruginosa [1] is 4.88; with Staphylococcus aureus [2] it was 4.04; in the series on Staphylococcus aureus [3] it was 4.10; in the series on Staphylococcus aureus [4], 4.32; with Escherichia coli [5], 4.89; in the series on Staphylococcus aureus [6], 4.43. Besides, the pIC50 with Pseudomonas aeruginosa [8] is 4.58; in [11], 4.80; with Escherichia coli [12], 4.67. For the same molecule, the “fold change (FC)” value in series [14] is given as 2.35. Moreover, in [7], the Activity entry is “Toxic”. In addition, the viability at 72 h, 100 µM in series [9] was found to be 70%. Also, the viability at 72 h, 400 µM in [10] is 22.9%. In addition, the CC50 in the series with HCT-116 came out at 29.9 µM; in series [15], 46.4 µM. Also, the viability at 72 h, 25 µM in [13] stood at 56.4%.

With `NCCCCCCNc1ncc(-c2ccccc2)[nH]1`, the negative logarithm of the IC50 (pIC50) was 4.63 in the series on Pseudomonas aeruginosa [1]; 3.73 in the series on Staphylococcus aureus [2]; 3.69 with Staphylococcus aureus [3]; 4.02 in the series on Staphylococcus aureus [4]; 4.58 in the series on Escherichia coli [5]; 4.20 with Staphylococcus aureus [6]. Also, the pIC50 in the series on Pseudomonas aeruginosa [8] is 4.13; in series [11], 4.53; in [18], 3.79; in the series with Escherichia coli [12], 4.26. Also, in [16], the viability at 72 h, 25 µM was found to be 78.6%. The viability at 72 h, 100 µM in series [9] worked out at 12.9%. In series [10], the viability at 72 h, 400 µM was found to be 2.9%. Besides, the Activity result in series [17] is “Non-toxic”.

On to `NCCCCNc1ncc(-c2ccccc2)[nH]1`, for which the pIC50 in the series with Pseudomonas aeruginosa [1] is 4.77; in the series on Staphylococcus aureus [2], 3.54; in the series with Staphylococcus aureus [3], 3.24; in the series on Staphylococcus aureus [4], 3.81; with Escherichia coli [5], 4.45; in the series with Staphylococcus aureus [6], 3.86. For the same molecule, the pIC50 with Pseudomonas aeruginosa [8] was 4.07; in [11], 4.48; in the series with Escherichia coli [12], 4.25. Also, the Activity entry in series [19] and in series [17] was “Non-toxic” each time. For the same molecule, the viability at 72 h, 400 µM in series [20] is 9%.

On to `NCCCCCCCCNc1ncc(-c2ccccc2)[nH]1`, for which the CC50 with NCI-H460 worked out at 30 µM; in the series on LN-229 (72 h), 30 µM; in the series with LN-229 (Homo sapiens, LN-229, 72 h), 52.9 µM; in the series on Z-138 (72 h) it was 30 µM; in the series with Z-138 (Homo sapiens, Z-138, 72 h) it was 49.7 µM; with CAPAN-1, 30 µM. Also, the CC50 in series [15] amounted to 58.3 µM; in the series with HL-60, 30 µM; with K562 (72 h), 30 µM; in the series with K562 (Homo sapiens, K562, 72 h), 57.4 µM. For the same molecule, the pIC50 in the series with Pseudomonas aeruginosa [1] was 4.90; in the series on Staphylococcus aureus [2], 4.39; in the series on Staphylococcus aureus [3] it was 4.34; in the series with Staphylococcus aureus [4], 4.68; in the series on Escherichia coli [5], 4.87; in the series on Staphylococcus aureus [6], 4.45. For the same molecule, the negative-log IC50 (pIC50) is 4.68 with Pseudomonas aeruginosa [8], 5.46 in [11], 4.69 in [18] and 4.81 in the series with Escherichia coli [12]. The viability at 72 h, 100 µM in [9] is less than 50%. In addition, the Activity result in [17] was “Non-toxic”.

Take `NCCCCNc1ncc(-c2ccc(F)cc2)[nH]1`: the pIC50 in the series on Pseudomonas aeruginosa [1] was 5.35; with Staphylococcus aureus [2], 3.75; in the series with Staphylococcus aureus [3], 3.66; with Staphylococcus aureus [4], 3.78; in the series with Escherichia coli [5], 4.83; with Staphylococcus aureus [6], 4.01. The pIC50 in the series on Pseudomonas aeruginosa [8] is 4.46; in series [11], 5.21; with Escherichia coli [12], 4.50. Moreover, in series [7], the Activity entry was “Toxic”.
